Source: patent US20100184955A1, “ANTICANCER PRODRUG SENSITIVE TO TARGET PROTEASE” (priority 2009, published 2010)

Test system: HeLa cells
Experiment: MTT cytotoxicity test in HeLa cells
Assay type: cell-based
Conditions: different concentrations, FIG. 4
Experimental: Each of Dox and albumin-peptide-Dox at different concentrations was added to HeLa cells and then a 3-(4,5-dimethylthiazol-2-yl)-2,5-diphenyltetrazolium bromide (MTT) assay was performed to evaluate cytotoxicity.

SMILES: COc1cccc2c1C(=O)c1c(O)c3c(c(O)c1C2=O)C[C@@](O)(C(=O)CO)C[C@@H]3O[C@H]1C[C@H](N)[C@H](O)[C@H](C)O1 [Dox, doxorubicin]
- cytotoxicity (MTT assay): the level of cytotoxicity was increased in proportion to the concentration
